Reference: paper PMC7170309, “Imidazopyridine-fused [1,3]diazepinones: modulations of positions 2 to 4 and their impacts on the anti-melanoma activity” (Journal of Enzyme Inhibition and Medicinal Chemistry, 2020)
Where two headings read alike, the source gives them in different places.

What was measured:
A375 melanoma cells = assay: Neutral red uptake (NRU) viability assay, A375; assay type: cell-based, human; details: for IC50: Homo sapiens, A-375, 72 h, mean ± SD of three experiments; for cytotoxic activity on A375 (in words): up to 40 µM
Procedure: (§1) Melanoma human cancer cell line (A375 and MDA-MB-435) were obtained from ATCC. The NIH-3T3 cell line was generously gifted by the ANSM (French National Agency for Medicines and Health Products Safety, Vendargues, France). Cells were cultured in Dulbecco’s Modified Eagle Medium (DMEM, Sigma Aldrich) supplemented with 10% heat-inactivated foetal calf serum (FCS, Gibco), 2 mM glutamax (Gibco), 100 IU/mL penicillin G sodium (Sigma Aldrich), 100 lU/mL streptomycin sulphate (Sigma Aldrich). The cells were allowed to grow at 37 °C in a fully humidified atmosphere containing 5% CO2.
(§2) A viability assay was used to evaluate the cytotoxic activity on A375 and MDA-MB-435 melanoma cells as previously described. According to OCDE/ICCVAM guidance n°129, NRU assay was also used to evaluate the toxicity on the non-cancerous NIH-3T3 cells. Cells were seeded at a final concentration of 2000 cells/well (A375), 3000 cells/well (NIH-3T3) or 7500 cells/well (MDA-MB-435) in 96-well microtiter plates for 24 h. Then, cells were exposed to two negative controls (1% DMSO in culture medium (vehicle) and culture medium alone), or to different compounds freshly dissolved in DMSO, in a range of concentration from 0.01 to 40 µM (six wells per concentration). After 72 h of incubation, cells were stained with new medium containing 50 µg/mL of neutral red (3-amino-7-dimethylamino-2-methylphenazine hydrochloride, Sigma Aldrich) at 37 °C for 2 h. The neutral red medium solution was then removed and the wells were washed with PBS. Finally, 100 µL of solution containing ethanol, acetic acid and water (50/1/49 v/v/v respectively) were added into the wells and the absorbance was measured at 540 nm using the microplate reader 352 Multiscan MS (Labsystems). Cell survival rates were normalised to the absorbance values of untreated control cells. IC50 was obtained using a logistic regression model on Graphpad Prism 5.0 software. Results are given as the mean ± standard deviation (SD) of three independent experiments. Statistical analysis was performed using the Student’s t-test.

[1] = test system: MDA-MB-435 melanoma cells; assay: Neutral red uptake (NRU) viability assay, MDA-MB-435; assay type: cell-based, human; details: for IC50: Homo sapiens, MDA-MB-435, 72 h, mean ± SD of three experiments; for IC50 / cytotoxic activity on MDA-MB-435 (in words): NRU assay; for times less active on MDA-MB-435 than on A375 cells: ratio of NRU IC50 values; for cytotoxic activity on MDA-MB-435 (in words): up to 40 µM
Procedure: as §1, §2

[2] = test system: NIH-3T3 non-cancerous cells; assay: Neutral red uptake (NRU) toxicity assay, NIH-3T3; assay type: cell-based; details: non-cancerous mouse fibroblasts
Procedure: as §1, §2
Then, all active compounds on the two melanoma cell lines (IC50 < 40 µM) were assessed on the NIH-3T3 mouse fibroblast cell line, in order to check the toxicity of our compounds on non-cancerous cells. […] As a possible modification of the mechanism of action was hypothesised for these two derivatives (see above), this phenomenon could probably be also correlated with the cytotoxicity observed on the NIH-3T3 cell line.

[3] = Calculated physicochemical parameters (molsoft cheminformatic tool); details: predicted
Procedure: Data set of physicochemical properties (cLogP, TPSA and molecular volume, Table 2) were calculated using the online available molsoft cheminformatic tool[23]. IC50 values of the compounds included in the test are presented in Table 1 for the correlations between IC50 and physicochemical properties of compounds modified in position 2 (Figure 2), and in Table S1 (SI) for the correlations between in vitro anti-cancer activity of JMV5038, compound 5 and […] on the NCI cell line panel (Figure 4). Pearson’s correlation coefficient r and level of significant p values were calculated using Origin Pro 2019.

[4] = test system: MDA-MB-435 melanoma cells; set-up: method as in PMID 27871038; details: previously described naphthyl analogues; read-out: IC50 on MDA-MB-435 cell line; cited from earlier work
[5] = Hydrolysis of ester 19 into acid 21 in the presence of melanoma cells and culture medium (HPLC-MS); assay type: in vitro ADME; details: after 72 h in the presence of melanoma cells and culture medium
Description: Then, we turned our attention to the SAR study of the position 4 of the diazepine ring, keeping constant the 4-bromophenyl group at R^2 (i.e. compounds 13–17 and 19–22). […] Introduction of a ramified isobutyl chain (compound 15) led also to a loss of the activity (entry 13, Table 1). […] In the same way, a less flexible chain bearing an alkyne group (compound 14) was not tolerated, as well as a long chain (compound 22) (Table 1, entries 12 and 20 respectively).

Row | SMILES | IC50 (A375 melanoma cells) | IC50 [1] | melting point | IC50 ([2]; Mus musculus, NIH3T3, 72 h) | other results
1 | C#Cc1ccc(C2=Nc3nc4ccccn4c3C(=O)[C@H](C)N2)cc1 [4′, (4S)-4-methyl-2–(4-ethynylphenyl)-3,4-dihydro-5H-pyrido[1’,2’:1,2]imidazo[4,5-d][1,3]diazepin-5-one] | 10.2 ± 0.55 µM | 5.14 ± 0.08 µM | 128 to 129 °C | > 40 µM | molecular volume increase compared to JMV5038 [3]: 2%
2 | CCCC[C@@H]1NC(c2ccc(Br)cc2)=Nc2nc3ccccn3c2C1=O [Compound 13, (4S)-4-butyl-(4-bromophenyl)-3,4-dihydro-5H-pyrido[1’,2’:1,2]imidazo[4,5-d][1,3]diazepin-5-one] | 15.3 ± 1.29 µM | 30.83 ± 0.09 µM |  | > 40 µM | 
3 | C[C@@H]1NC(c2coc3ccccc23)=Nc2nc3ccccn3c2C1=O [Compound 7, (4S)-4-methyl-2-benzofuran-3-yl-3,4-dihydro-5H-pyrido[1’,2’:1,2]imidazo[4,5-d][1,3]diazepin-5-one] | 8.47 ± 0.21 µM | 25.92 ± 0.17 µM | 164 to 165 °C | > 40 µM | times less active on MDA-MB-435 than on A375 cells [1]: around 3
4 | C[C@@H]1NC(c2c[nH]c3ccccc23)=Nc2nc3ccccn3c2C1=O [9′, (4S)-4-methyl-2-indol-3-yl-3,4-dihydro-5H-pyrido[1’,2’:1,2]imidazo[4,5-d][1,3]diazepin-5-one] | > 40 µM | > 40 µM | 164.5 to 165.5 °C |  | cytotoxic activity on A375 (in words) (A375 melanoma cells): totally inactive; cytotoxic activity on MDA-MB-435 (in words) [1]: totally inactive
5 | C[C@@H]1NC(c2ccc3oc(=O)ccc3c2)=Nc2nc3ccccn3c2C1=O [Compound 12, (4S)-4-methyl-2-coumarin-6-yl-3,4-dihydro-5H-pyrido[1’,2’:1,2]imidazo[4,5-d][1,3]diazepin-5-one] | > 40 µM | > 40 µM | 132.5 to 133.5 °C |  | cytotoxic activity on A375 (in words) (A375 melanoma cells): totally abolished the activity; cytotoxic activity on MDA-MB-435 (in words) [1]: totally abolished the activity
6 | CC(C)C[C@@H]1NC(c2ccc(Br)cc2)=Nc2nc3ccccn3c2C1=O [Compound 15, (4S)-4-isobutyl-2-(4-bromophenyl)-3,4-dihydro-5H-pyrido[1’,2’:1,2]imidazo[4,5-d][1,3]diazepin-5-one] | > 40 µM | > 30 µM | 72 to 73 °C |  | 
7 | C[C@@H]1NC(c2ccc3ccccc3n2)=Nc2nc3ccccn3c2C1=O [Compound 11, (4S)-4-methyl-2-quinolin-2-yl-3,4-dihydro-5H-pyrido[1’,2’:1,2]imidazo[4,5-d][1,3]diazepin-5-one] | 15.6 ± 0.7 µM | 30.71 ± 0.19 µM | 170 to 171 °C | > 40 µM | times less active on MDA-MB-435 than on A375 cells [1]: around 3
8 | C[C@@H]1NC(c2ccc(C(=O)c3ccccc3)cc2)=Nc2nc3ccccn3c2C1=O [Compound 6, (4S)-4-methyl-2-(4-benzoylphenyl)-3,4-dihydro-5H-pyrido[1’,2’:1,2]imidazo[4,5-d][1,3]diazepin-5-one] | > 40 µM | > 40 µM | 132 to 133 °C |  | cytotoxic activity on A375 (in words) (A375 melanoma cells): totally inactive; cytotoxic activity on MDA-MB-435 (in words) [1]: totally inactive
9 | C[C@@H]1NC(c2cn(C(=O)OC(C)(C)C)c3ccccc23)=Nc2nc3ccccn3c2C1=O [Compound 9, (4S)-4-methyl-2-(1-boc-indol-3-yl)-3,4-dihydro-5H-pyrido[1’,2’:1,2]imidazo[4,5-d][1,3]diazepin-5-one] |  |  | 155 to 157 °C |  | 
10 | C#CC[C@@H]1NC(c2ccc(Br)cc2)=Nc2nc3ccccn3c2C1=O [Compound 14, (4S)-4-propargyl-2-(4-bromophenyl)-3,4-dihydro-5H-pyrido[1’,2’:1,2]imidazo[4,5-d][1,3]diazepin-5-one] | > 40 µM | > 30 µM |  |  | 
11 | CC1NC(c2cccc3ccccc23)=Nc2nc3ccccn3c2C1=O (stereo not drawn) [1-naphthyl derivative] |  |  |  |  | IC50 [4]: 1.4 µM
12 | C[C@@H]1NC(c2ccc(C#C[Si](C)(C)C)cc2)=Nc2nc3ccccn3c2C1=O |  |  | 115 to 116 °C |  | 
13 | CC1NC(c2ccc3ccccc3c2)=Nc2nc3ccccn3c2C1=O (stereo not drawn) [2-naphthyl derivative] |  |  |  |  | IC50 [4]: 1.4 µM
14 | C[C@@H]1NC(c2ccc3ncccc3c2)=Nc2nc3ccccn3c2C1=O [Compound 10, (4S)-4-methyl-2-quinolin-6-yl-3,4-dihydro-5H-pyrido[1’,2’:1,2]imidazo[4,5-d][1,3]diazepin-5-one] | 9.76 ± 0.95 µM | 35.49 ± 0.21 µM | 165 to 166 °C | > 40 µM | times less active on MDA-MB-435 than on A375 cells [1]: around 3

More lines, main results first:

Row | IC50 (A375 melanoma cells) | IC50 [1] | melting point | SMILES | IC50 ([2]; Mus musculus, NIH3T3, 72 h) | other results
15 | > 40 µM | > 40 µM | 116 to 117 °C | [N-]=[N+]=NCCCC[C@@H]1NC(c2ccccc2)=Nc2nc3ccccn3c2C1=O [Compound 18, (4S)-4-(4-azidobutyl)-2-phenyl-3,4-dihydro-5H-pyrido[1’,2’:1,2]imidazo[4,5-d][1,3]diazepin-5-one] |  | cytotoxic activity on A375 (in words) (A375 melanoma cells): totally inactive; cytotoxic activity on MDA-MB-435 (in words) [1]: totally inactive
16 | 8.54 ± 0.22 µM | 30.9 ± 0.11 µM |  | [N-]=[N+]=NCCCC[C@H]1NC(c2ccc(Br)cc2)=Nc2nc3ccccn3c2C1=O [Compound 17, (4R)-4-(4-azidobutyl)-2-(4-bromophenyl)-3,4-dihydro-5H-pyrido[1’,2’:1,2]imidazo[4,5-d][1,3]diazepin-5-one] | ~10 µM | IC50 ([2]; 72 h): 13.7 ± 0.34 µM
17 | > 40 µM | > 40 µM |  | C#CCCC(=O)NCCCC[C@@H]1NC(c2ccc(Br)cc2)=Nc2nc3ccccn3c2C1=O [Compound 22, (4S)-N-{4-[2-(4-bromophenyl)-5-oxo-4,5-dihydro-3H-pyrido[1’,2’:1,2]imidazo[4,5-d][1,3]diazepin-4-yl]butyl}pent-4-ynamide] |  | 
18 | 9.78 ± 0.83 µM | 19.4 ± 0.64 µM | 72.5 to 73.5 °C | O=C(C[C@@H]1NC(c2ccc(Br)cc2)=Nc2nc3ccccn3c2C1=O)OCc1ccccc1 [Compound 19, (4S)-benzyl [2-(4-bromophenyl)-5-oxo-4,5-dihydro-3H-pyrido[1’,2’:1,2]imidazo[4,5-d][1,3]diazepin-4-yl]acetate] | > 40 µM | hydrolysis rate (conversion into acid 21) [5]: 65.5%
19 | > 40 µM | > 40 µM |  | O=C1c2c(nc3ccccn23)N=C(c2ccc(Br)cc2)N2CCC[C@@H]12 [Compound 20, 7–(4-bromophenyl)-9,10,11,11a-tetrahydro-12H-pyrido[2’,1’:2,3]imidazo[4,5-f]pyrrolo[1,2-c][1,3]diazepin-12-one] |  | 
20 | > 40 µM | > 40 µM |  | O=C(O)C[C@@H]1NC(c2ccc(Br)cc2)=Nc2nc3ccccn3c2C1=O [Compound 21, (4S)-[2-(4-bromophenyl)-5-oxo-4,5-dihydro-3H-pyrido[1’,2’:1,2]imidazo[4,5-d][1,3]diazepin-4-yl]acetic acid] |  | cytotoxic activity on A375 (in words) (A375 melanoma cells): inactive; cytotoxic activity on MDA-MB-435 (in words) [1]: inactive
